Test results as given in patent publication US20080293712A1, “Benzo[C][2,7]Naphtyridine Derivatives, Methods of Making Thereof and Methods of Use Thereof” (WYETH, priority 2007, published 2008).

Key:
Format in all cases: biochemical
PDK-1 = target: T1, PDK-1 (Homo sapiens, UniProt O15530); test: PDK-1 kinase inhibition ELISA assay (phosphorylation of His6-tagged SGK1 S422D by PDK-1); conditions: PDK-1 ELISA, Table 11; read-out: Average IC50
T1 sequence (O15530 1-556): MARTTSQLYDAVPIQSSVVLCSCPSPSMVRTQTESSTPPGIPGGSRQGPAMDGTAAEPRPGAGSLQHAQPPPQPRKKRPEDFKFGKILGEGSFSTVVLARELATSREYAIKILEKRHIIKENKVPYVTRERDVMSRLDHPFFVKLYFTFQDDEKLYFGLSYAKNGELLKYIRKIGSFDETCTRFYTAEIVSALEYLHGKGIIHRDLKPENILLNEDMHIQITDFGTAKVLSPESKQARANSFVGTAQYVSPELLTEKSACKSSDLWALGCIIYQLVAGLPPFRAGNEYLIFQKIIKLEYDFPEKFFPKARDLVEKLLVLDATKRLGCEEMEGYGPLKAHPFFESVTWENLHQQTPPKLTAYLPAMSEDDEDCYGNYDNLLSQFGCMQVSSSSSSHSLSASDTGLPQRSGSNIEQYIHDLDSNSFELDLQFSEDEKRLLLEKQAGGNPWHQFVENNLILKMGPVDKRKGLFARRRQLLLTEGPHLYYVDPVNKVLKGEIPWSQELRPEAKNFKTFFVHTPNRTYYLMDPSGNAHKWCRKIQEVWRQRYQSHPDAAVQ

PKA = PKA (Homo sapiens, UniProt P17612); test: PKA kinase inhibition, Z'-LYTE FRET assay
Akt1 = Akt1 (Homo sapiens, UniProt P31749); test: Akt1 kinase inhibition, Z'-LYTE FRET assay; conditions: 100 μM ATP
Chain of Akt1 (P31749 whole entry, species assumed): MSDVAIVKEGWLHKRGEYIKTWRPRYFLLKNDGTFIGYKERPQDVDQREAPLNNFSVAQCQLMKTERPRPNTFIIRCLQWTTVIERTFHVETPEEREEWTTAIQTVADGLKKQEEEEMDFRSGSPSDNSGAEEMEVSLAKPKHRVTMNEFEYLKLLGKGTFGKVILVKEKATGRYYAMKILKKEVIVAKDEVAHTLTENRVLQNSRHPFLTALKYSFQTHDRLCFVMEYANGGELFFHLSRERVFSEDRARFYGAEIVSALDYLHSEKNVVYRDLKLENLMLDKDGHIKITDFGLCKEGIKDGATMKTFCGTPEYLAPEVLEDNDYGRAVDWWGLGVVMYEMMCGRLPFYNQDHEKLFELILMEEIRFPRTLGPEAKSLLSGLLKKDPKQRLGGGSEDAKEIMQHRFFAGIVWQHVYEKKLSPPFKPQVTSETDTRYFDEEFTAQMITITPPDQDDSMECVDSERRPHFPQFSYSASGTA
Description: (§1) The ability of illustrative Benzo[c][2,7]naphthyridine Derivatives to inhibit PKA, Akt1, S6K in vitro can be determined using a Fluorescence Resonance Energy Transfer (FRET) assay, such as a Z′-LYTE™ Kinase Assay Platform, commercially available from Invitrogen (c.f. Rodems et al., ASSAY Drug Devel. Technol. 1:9-19 (2002) and Zhang et al., J. Biomol. Screen. 4:67-73 (1999)). Z′-Lyte™ assay is an in vitro FRET-based assay that utilizes differential sensitivity of phosphorylated and non-phosphorylated peptides to proteolytic cleavage. The peptide substrate (also available from Invitrogen for each of PKA, Akt1 and S6K) is labeled with two different fluorophores, a fluorescence donor at one end of the peptide and a fluorescence acceptor at the other end of the peptide. In the primary kinase reaction, the kinase phosphorylates the peptide substrate in the presence of ATP. In the secondary reaction, a site-specific protease recognizes and cleaves non-phosphorylated peptides, but not phosphorylated peptides. Cleavage disrupts FRET between the donor and acceptor fluorophores on the peptide, whereas uncleaved phosphorylated peptides maintain FRET. Based on a formula that uses the ratio of donor emission (at 460 nm) to acceptor emission (at […]) after excitation of the donor fluorophore at 400 nm, the extent of phosphorylation of the peptide substrates is calculated. IC50 values of illustrative Benzo[c][2,7]naphthyridine Derivatives, shown in Table 12, are calculated using LSW Data Analysis package add-in for Excel (Microsoft).

S6K = S6K (Homo sapiens, UniProt P23443); test: S6K kinase inhibition, Z'-LYTE FRET assay; conditions: 100 μM ATP
Chain of S6K (P23443 whole entry): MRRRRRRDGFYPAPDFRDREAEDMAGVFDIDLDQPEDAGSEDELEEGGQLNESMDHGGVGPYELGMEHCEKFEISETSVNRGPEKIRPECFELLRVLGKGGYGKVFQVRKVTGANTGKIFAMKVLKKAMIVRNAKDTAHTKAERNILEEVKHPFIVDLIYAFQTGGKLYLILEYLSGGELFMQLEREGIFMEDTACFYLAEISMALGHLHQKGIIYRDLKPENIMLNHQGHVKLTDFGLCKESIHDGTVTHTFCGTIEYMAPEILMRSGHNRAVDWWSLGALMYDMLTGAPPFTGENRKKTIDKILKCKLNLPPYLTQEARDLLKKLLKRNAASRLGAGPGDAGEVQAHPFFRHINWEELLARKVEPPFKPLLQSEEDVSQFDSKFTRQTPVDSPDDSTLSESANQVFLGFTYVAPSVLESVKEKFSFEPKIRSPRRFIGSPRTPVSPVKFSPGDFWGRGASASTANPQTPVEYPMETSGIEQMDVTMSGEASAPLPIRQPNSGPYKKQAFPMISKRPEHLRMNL
Description: as §1

| SMILES | IC50 (PDK-1) | IC50 (PKA; 20 μM ATP) | IC50 (PKA; 100 μM ATP) | IC50 (Akt1) | IC50 (S6K) |
| --- | --- | --- | --- | --- | --- |
| COc1cc2ncc3c(N)nc(-c4cncc(OC[C@@H](N)Cc5ccc(O)cc5)c4)cc3c2cc1OC [Ib-53, 4-((2S)-2-Amino-3-{[5-(4-amino-8,9-dimethoxybenzo[c]-2,7-naphthyridin-2-yl)pyridin-3-yl]oxy}propyl)phenol] | 17 nM | 400 nM | > 2000 nM | 15 nM | 86 nM |
| COc1cc2ncc3c(N)nc(-c4cncc(OC[C@H](N)CN5Cc6ccccc6C5)c4)cc3c2cc1OC [Ib-48, 2-(5-{[(2R)-2-amino-3-(1,3-dihydro-2H-isoindol-2-yl)propyl]oxy}pyridin-3-yl)-8,9-dimethoxybenzo[c]-2,7-naphthyridin-4-amine] | 34 nM | 2700 nM | > 2000 nM | 400 nM | 405 nM |
| COc1cc2ncc3c(N)nc(-c4cncc(OC[C@@H](N)COCc5ccccc5)c4)cc3c2cc1OC [Ib-51, 2-(5-{[(2S)-2-amino-3-(benzyloxy)propyl]oxy}pyridin-3-yl)-8,9-dimethoxybenzo[c]-2,7-naphthyridin-4-amine] | 5 nM | 340 nM | 712 nM | < 160 nM | 60 nM |
| COc1cc2ncc3c(N)nc(-c4cncn4C)cc3c2cc1OC [Ib-63, 8,9-Dimethoxy-2-(1-methyl-1H-imidazol-5-yl)benzo[c]-2,7-naphthyridin-4-amine] | 66 nM | > 20000 nM | > 2000 nM | 400 nM | 1270 nM |
| COc1cc2ncc3c(N)nc(-c4cncc(OC[C@@H](N)Cc5ccccc5Cl)c4)cc3c2cc1OC [Ib-52, 2-(5-{[(2S)-2-amino-3-(2-chlorophenyl)propyl]oxy}pyridin-3-yl)-8,9-dimethoxybenzo[c]-2,7-naphthyridin-4-amine] | 8 nM | 45 nM | 793 nM | 6.4 nM | 106 nM |
| Nc1nc(-c2cncc(OC[C@@H](N)Cc3ccccc3)c2)cc2c1cnc1ccccc12 [Ia-3, 2-(5-{[(2S)-2-Amino-3-phenylpropyl]oxy}pyridin-3-yl)benzo[c]-2,7-naphthyridin-4-amine] | 104 nM | 300 nM | 911 nM |  | 1200 nM |
| COc1cc2ncc3c(N)nc(-c4cncc(OC[C@H](N)Cc5ccc(F)cc5)c4)cc3c2cc1OC [Ib-47, 2-(5-{[(2R)-2-amino-3-(4-fluorophenyl)propyl]oxy}pyridin-3-yl)-8,9-dimethoxybenzo[c]-2,7-naphthyridin-4-amine] | 15 nM | 25 nM | 251 nM | 12 nM | 93 nM |
| COc1cc2c(cc1OCCCl)ncc1c(N)nc(-n3ccnc3)cc12 [Ia-21, 8-(2-chloroethoxy)-2-(1H-imidazol-1-yl)-9-methoxybenzo[c][2,7]naphthyridin-4-amine] | 65 nM | > 20000 nM | > 2000 nM | 300 nM | 1560 nM |

Now from value to molecule:

| IC50 (PDK-1) | IC50 (PKA; 20 μM ATP) | IC50 (PKA; 100 μM ATP) | IC50 (Akt1) | IC50 (S6K) | SMILES |
| --- | --- | --- | --- | --- | --- |
| 43 nM | 1500 nM | > 2000 nM | 250 nM | 7 to 82 nM | COc1cc2ncc3c(N)nc(-c4cncc(OC[C@H]5CCCN5)c4)cc3c2cc1OC [Ib-61, 8,9-dimethoxy-2-{5-[(2R)-pyrrolidin-2-ylmethoxy]pyridin-3-yl}benzo[c]-2,7-naphthyridin-4-amine] |
| 61 nM | 2100 nM | > 2000 nM | 160 nM | 220 nM | COc1cc2ncc3c(N)nc(-c4cncc(OC[C@@H](N)CN5CCc6ccccc6C5)c4)cc3c2cc1OC [Ib-50, 2-(5-{[(2S)-2-amino-3-(3,4-dihydroisoquinolin-2(1H)-yl)propyl]oxy}pyridin-3-yl)-8,9-dimethoxybenzo[c]-2,7-naphthyridin-4-amine] |
|  | 340 nM | 872 nM | 500 nM | 520 nM | Nc1nc(-c2cncc(OC[C@@H](N)Cc3ccccc3)c2)cc2c1cnc1cc(C#CCCn3ccnc3)ccc12 [Ia-5, 2-(5-{[(2S)-2-Amino-3-phenylpropyl]oxy}pyridin-3-yl)-8-[4-(1H-imidazol-1-yl)but-1-yn-1-yl]benzo[c]-2,7-naphthyridin-4-amine] |
| 90 nM | 2500 nM | > 2000 nM | 2000 nM | > 2000 nM | COc1cc2c(cc1O)ncc1c(N)nc(-n3ccnc3)cc12 [Ia-33, 4-Amino-2-(1H-imidazol-1-yl)-9-methoxybenzo[c]-2,7-naphthyridin-8-ol] |
| 105 nM | > 10000 nM | > 2000 nM | 280 nM | > 2000 nM | COc1cc2c(cc1OCCCCl)ncc1c(N)nc(-n3ccnc3)cc12 [Ia-17, 8-(3-Chloropropoxy)-2-(1H-imidazol-1-yl)-9-methoxybenzo[c][2,7]naphthyridin-4-amine] |
| 120 nM | > 20000 nM | > 2000 nM | 170 nM | 422 nM | COc1cc2c(cc1OCCCN1CCCC1)ncc1c(N)nc(-c3cccnc3)cc12 [Ia-31, 9-Methoxy-2-pyridin-3-yl-8-(3-pyrrolidin-1-ylpropoxy)benzo[c]-2,7-naphthyridin-4-amine] |
| 6 nM | < 32 nM | 116 nM |  | 61 to 130 nM | COCCN(C[C@H](N)COc1cncc(-c2cc3c(cnc4cc(OC)c(OC)cc43)c(N)n2)c1)c1ccccc1 [Ib-34, (2S)-3-{[5-(4-amino-8,9-dimethoxybenzo[c]-2,7-naphthyridin-2-yl)pyridin-3-yl]oxy}-N1-(2-methoxyethyl)-N1-phenylpropane-1,2-diamine] |
| 13 nM |  | 198 to 219 nM |  | 169 to 194 nM | COc1cc2ncc3c(N)nc(-c4cncc(OC[C@@H](N)Cc5cccc(C(F)(F)F)c5)c4)cc3c2cc1OC [Ib-24, 2-[5-({(2S)-2-amino-3-[3-(trifluoromethyl)phenyl]propyl}oxy)pyridin-3-yl]-8,9-dimethoxybenzo[c]-2,7-naphthyridin-4-amine] |
| 850 nM |  | > 2000 nM |  | > 2000 nM | COc1cc2ncc3c(N)nc(-c4cncc(C#CCN(C)Cc5ccccc5)c4)cc3c2cc1OC [Ib-32, 2-(5-{3-[Benzyl(methyl)amino]prop-1-yn-1-yl}pyridin-3-yl)-8,9-dimethoxybenzo[c]-2,7-naphthyridin-4-amine] |
| 97 nM | 240 nM | > 2000 nM | 75 nM | 1030 nM | Nc1nc(-n2ccnc2)cc2c1cnc1cc(/C=C/CCN3CCCC3)ccc12 [Ia-24, 2-(1H-imidazol-1-yl)-8-[(1E)-4-pyrrolidin-1-ylbut-1-en-1-yl]benzo[c]-2,7-naphthyridin-4-amine] |
